Measured values from PubChem BioAssay (NCI).
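Tested at 5 concentrations; 48 h exposure; 96-well plates; endpoints linearly interpolated, else capped at highest concentration. At the GI50, growth is halved. TGI denotes the concentration required for complete inhibition of growth.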

Legend:
Assay in all cases: DTP human tumour cell line panel, 48 h
[1] = test system: HCT-15 colon
[2] = test system: NCI-H460 lung
[3] = test system: OVCAR-5 ovarian
[4] = test system: SN12C renal
[5] = test system: SW-620 colon
[6] = test system: TK-10 renal
[7] = test system: UO-31 renal
[8] = test system: DU-145 prostate
[9] = test system: MDA-MB-231 breast
[10] = test system: T-47D breast

CCOC(=O)C1SC(=Nc2ccc(OC)c(OC)c2)N=C1C (configuration not stated)
TGI [1]: > 100 µM | TGI [2]: > 100 µM | TGI [3]: > 100 µM | TGI [4]: > 100 µM | TGI [5]: > 100 µM | TGI [6]: > 100 µM | TGI [7]: 86.7 µM

COc1ccc2c(c1)c(-c1nc(-c3c[nH]c4ncccc34)cs1)cn2CCCN1CCCCC1
GI50 [8]: 1.65 µM | TGI [8]: 3.13 µM | GI50 [1]: 1.57 µM | TGI [1]: 2.97 µM | GI50 [9]: 1.66 µM | TGI [9]: 3.27 µM | GI50 [2]: 1.94 µM | TGI [2]: 3.88 µM | GI50 [3]: 1.73 µM | TGI [3]: 3.8 µM | GI50 [4]: 1.75 µM | TGI [4]: 3.36 µM | GI50 [5]: 2 µM | TGI [5]: 3.95 µM | GI50 [6]: 1.59 µM | TGI [6]: 3.03 µM | GI50 [7]: 1.38 µM | TGI [7]: 2.83 µM

NC(=NCc1ccccc1)C(N=Nc1ccccc1)C(=O)NCc1ccccc1 (configuration not stated)
GI50 [8]: 2.28 µM | TGI [8]: 6.01 µM | GI50 [1]: 8.19 µM | TGI [1]: 67.3 µM | GI50 [9]: 14.4 µM | TGI [9]: 35.2 µM | GI50 [2]: 2.37 µM | TGI [2]: 6.18 µM | GI50 [3]: 18 µM | TGI [3]: 44.7 µM | GI50 [4]: 22.6 µM | TGI [4]: 87 µM | GI50 [5]: 1.83 µM | TGI [5]: 3.62 µM | GI50 [10]: 13.6 µM | TGI [10]: 35.4 µM | GI50 [7]: 5.87 µM | TGI [7]: 29.1 µM

N#CC(/C(CCC(=O)Nc1ccc(Cl)cc1)=N/NC(=O)c1cc2ccccc2cc1O)c1ccccc1 (configuration not stated)
TGI [2]: > 100 µM | TGI [3]: 60.6 µM | TGI [4]: > 100 µM | TGI [5]: > 100 µM | TGI [6]: > 100 µM | TGI [7]: > 100 µM

N.N.N.N.N.NC(=O)[O-].[Co+3].[I-]
GI50 [1]: > 100 µM | TGI [1]: > 100 µM | GI50 [2]: > 100 µM | TGI [2]: > 100 µM | GI50 [3]: > 100 µM | TGI [3]: > 100 µM | GI50 [4]: > 100 µM | TGI [4]: > 100 µM | GI50 [5]: > 100 µM | TGI [5]: > 100 µM | GI50 [6]: > 100 µM | TGI [6]: > 100 µM | GI50 [7]: > 100 µM | TGI [7]: > 100 µM

O=C1C(Cl)=C(Nc2ccc(Nc3ccccc3)c(NC3=C(Cl)C(=O)c4ccccc4C3=O)c2)C(=O)c2ccccc21
GI50 [8]: 14.9 µM | TGI [8]: 28.4 µM | GI50 [1]: 3.46 µM | TGI [1]: > 100 µM | GI50 [9]: 1.27 µM | TGI [9]: 6.02 µM | GI50 [2]: 3.35 µM | TGI [2]: 13 µM | GI50 [3]: 24 µM | TGI [3]: 66.8 µM | GI50 [4]: 2.97 µM | TGI [4]: 13.7 µM | GI50 [10]: 1.95 µM | TGI [10]: 4.75 µM | GI50 [6]: 2.62 µM | TGI [6]: 4.5 µM | GI50 [7]: 1.35 µM | TGI [7]: 7.71 µM

CC(C)N(O)C(=N)c1ccccc1
TGI [2]: > 100 µM | TGI [3]: > 100 µM | TGI [4]: > 100 µM | TGI [5]: > 100 µM | TGI [6]: > 100 µM | TGI [7]: > 100 µM

COc1cc(OC)c(C(=O)c2cccs2)cc1N
TGI [1]: > 100 µM | TGI [2]: > 100 µM | TGI [3]: > 100 µM | TGI [4]: > 100 µM | TGI [5]: > 100 µM | TGI [6]: > 100 µM | TGI [7]: > 100 µM

CC(CC(=O)N1C(=O)C(C)(C)[C@@H](O)[C@H]1CC(C)C(Cl)(Cl)Cl)C(Cl)(Cl)Cl (some centres not stated)
TGI [1]: > 100 µM | TGI [2]: > 100 µM | TGI [4]: > 100 µM | TGI [5]: > 100 µM | TGI [6]: > 100 µM | TGI [7]: > 100 µM

O=C/C1=C/C2=Cc3ccccc3C=C(/C=C(/C=O)C1)C2
TGI [1]: > 100 µM | TGI [2]: > 100 µM | TGI [3]: > 100 µM | TGI [4]: > 100 µM | TGI [5]: > 100 µM | TGI [6]: > 100 µM | TGI [7]: > 100 µM

CCC(=O)N1C(=O)OCC1C(C)C (configuration not stated)
TGI [1]: > 100 µM | TGI [2]: > 100 µM | TGI [3]: > 100 µM | TGI [4]: > 100 µM | TGI [5]: > 100 µM | TGI [6]: > 100 µM | TGI [7]: > 100 µM

O=C1C(=O)N(c2ccc(Cl)cc2)C(=O)C(=O)C1c1nc2ccccc2o1
TGI [1]: > 100 µM | TGI [2]: > 100 µM | TGI [3]: > 100 µM | TGI [4]: > 100 µM | TGI [5]: > 100 µM | TGI [6]: > 100 µM | TGI [7]: > 100 µM

NCCc1ccc(S(=O)(=O)F)cc1
GI50 [8]: 37 µM | TGI [8]: > 100 µM | GI50 [1]: 64.4 µM | TGI [1]: > 100 µM | GI50 [2]: 62.3 µM | TGI [2]: > 100 µM | GI50 [3]: 43.4 µM | TGI [3]: > 100 µM | GI50 [5]: 52.8 µM | TGI [5]: > 100 µM | GI50 [10]: > 100 µM | TGI [10]: > 100 µM | GI50 [6]: 59.3 µM | TGI [6]: > 100 µM | GI50 [7]: > 100 µM | TGI [7]: > 100 µM

CCCCCCCCCCCCCCCC1=NCCN1
GI50 [8]: 1.9 µM | TGI [8]: 3.57 µM | GI50 [1]: 1.61 µM | TGI [1]: 3.24 µM | GI50 [9]: 2.23 µM | TGI [9]: 4.68 µM | GI50 [3]: 2.26 µM | TGI [3]: 5.53 µM | GI50 [4]: 2.07 µM | TGI [4]: 4.29 µM | GI50 [5]: 1.9 µM | TGI [5]: 3.77 µM | GI50 [10]: 2.14 µM | TGI [10]: 5.65 µM | GI50 [6]: 1.84 µM | TGI [6]: 3.39 µM | GI50 [7]: 1.65 µM | TGI [7]: 3.47 µM

O=S(=O)([O-])c1ccc(N=Cc2ccccc2[O-])cc1.O=S(=O)([O-])c1ccc(N=Cc2ccccc2[O-])cc1.[Co+2]
GI50 [1]: > 100 µM | TGI [1]: > 100 µM | GI50 [3]: > 100 µM | TGI [3]: > 100 µM | GI50 [4]: > 100 µM | TGI [4]: > 100 µM | GI50 [5]: > 100 µM | TGI [5]: > 100 µM | GI50 [6]: > 100 µM | TGI [6]: > 100 µM | GI50 [7]: 69.3 µM | TGI [7]: > 100 µM

COc1cc(/C=C(\NC(=O)c2ccccc2)c2nc3ccc4c(c3[nH]2)C(=O)c2ccccc2C4=O)cc(OC)c1OC
TGI [1]: > 100 µM | TGI [3]: > 100 µM | TGI [4]: > 100 µM | TGI [5]: > 100 µM | TGI [6]: > 100 µM | TGI [7]: 13.5 µM

CN1CN(C2OC(CO)C(O)C2O)c2nc(N)[nH]c(=O)c21 (configuration not stated)
TGI [1]: > 100 µM | TGI [2]: > 100 µM | TGI [3]: > 100 µM | TGI [4]: > 100 µM | TGI [5]: > 100 µM | TGI [6]: > 100 µM | TGI [7]: > 100 µM

O=c1c2ccc(S(=O)(=O)c3ccc4c(=O)n5c6ccccc6nc5c5cccc3c45)c3cccc(c32)c2nc3ccccc3n12
TGI [8]: > 100 µM | TGI [1]: > 100 µM | TGI [9]: 59.9 µM | TGI [2]: > 100 µM | TGI [3]: > 100 µM | TGI [4]: > 100 µM | TGI [10]: 99.3 µM | TGI [6]: 50.3 µM | TGI [7]: > 100 µM

O=C1/C=C/[C@@H](O)[C@@H]2C[C@@H](O)C[C@H]2/C=C/CCC[C@H](CCc2cccc3ccccc23)O1
GI50 [8]: 0.377 µM | TGI [8]: 14.7 µM | GI50 [1]: 0.326 µM | TGI [1]: 10.5 µM | GI50 [9]: 0.0464 µM | TGI [9]: 0.119 µM | GI50 [2]: 0.274 µM | TGI [2]: 12.2 µM | GI50 [3]: 0.103 µM | TGI [3]: 13.9 µM | GI50 [4]: 0.248 µM | TGI [4]: 11.5 µM | GI50 [5]: 0.0518 µM | TGI [5]: 0.451 µM | GI50 [6]: 0.0861 µM | TGI [6]: 0.328 µM | GI50 [7]: 0.046 µM | TGI [7]: 12.3 µM
